Data: ChEMBL document CHEMBL2396560, “Discovery of (R)-4-cyclopropyl-7,8-difluoro-5-(4-(trifluoromethyl)phenylsulfonyl)-4,5-dihydro-1H-pyrazolo[4,3-c]quinoline (ELND006) and (R)-4-cyclopropyl-8-fluoro-5-(6-(trifluoromethyl)pyridin-3-ylsulfonyl)-4,5-dihydro-2H-pyrazolo[4,3-c]quinoline (ELND007): metabolically stable γ-secretase …” (J Med Chem, 2013)

How the values were obtained:
[1] = Oral bioavailability in rat; type: ADME, organism-based; conditions: in vivo
[2] = Passive permebility in wild-type MDCK cells; type: ADME, cell-based, Canis lupus familiaris; conditions: dog, read-out: permeability

## CC(C)NCC(O)COc1cccc2ccccc12 (configuration not stated) [PROPRANOLOL]
[1]
  bioavailability: 30%
[2]
  Papp: 17.8 ×10⁻⁶ cm/s
